According to patent EP1090023B1 (GLAXO GROUP LIMITED, priority 1998, dated 1999):

Key:
Type in all cases: cell-based
adenosine 2a = adenosine 2a (Homo sapiens, UniProt P29274); assay: Agonist activity against adenosine receptor subtypes, CHO cells with cAMP response element/SPAP reporter (basal cAMP); details: ratio to EC50 of NECA; transfected CHO cells; effect on basal cAMP via SPAP
Protocol: (§1) Compounds of the invention were tested for in vitro and in vivo biological activity in accordance with the following screens: • (1) Agonist activity against adenosine 2a, adenosine 1 and adenosine 3 receptor subtypes.
(§2) Agonist selectivity of compounds against other human adenosine receptors was determined using Chinese hamster ovary (CHO) cells transfected with the gene for the relevant human adenosine receptor following a method based on that of Castanon and Spevak, 1994 . The CHO cells were also transfected with cyclic AMP response elements promoting the gene for secreted placental alkaline phosphatase (SPAP) (Wood, 1995). The effect of test compounds was determined by their effects on basal levels of cAMP (A2a) or on forskolin-enhanced cAMP (A1 and A3) as reflected by changes in levels of SPAP. EC50 values for compounds were then determined as a ratio to that of the non-selective agonist N-ethyl carboxamide adenosine (NECA).

adenosine 1 = target: T1, adenosine 1 (Homo sapiens, UniProt P30542); assay: Agonist activity against adenosine receptor subtypes, CHO cells with cAMP response element/SPAP reporter (forskolin-enhanced cAMP); details: ratio to EC50 of NECA; transfected CHO cells; effect on forskolin-enhanced cAMP via SPAP
T1 sequence (P30542 1-326): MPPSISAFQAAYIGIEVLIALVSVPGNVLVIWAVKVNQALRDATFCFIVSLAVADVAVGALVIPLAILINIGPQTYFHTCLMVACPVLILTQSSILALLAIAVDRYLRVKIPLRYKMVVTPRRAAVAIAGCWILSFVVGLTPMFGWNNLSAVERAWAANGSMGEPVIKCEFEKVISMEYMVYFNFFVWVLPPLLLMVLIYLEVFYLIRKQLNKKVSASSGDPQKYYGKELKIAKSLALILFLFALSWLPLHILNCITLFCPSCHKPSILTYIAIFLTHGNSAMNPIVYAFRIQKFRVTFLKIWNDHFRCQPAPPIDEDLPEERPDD
Protocol: as §1, §2

adenosine 3 = target: T2, adenosine 3 (Homo sapiens, UniProt P0DMS8); assay: as above; details: ratio to EC50 of NECA; transfected CHO cells; effect on forskolin-enhanced cAMP via SPAP
T2 sequence (P0DMS8 1-318): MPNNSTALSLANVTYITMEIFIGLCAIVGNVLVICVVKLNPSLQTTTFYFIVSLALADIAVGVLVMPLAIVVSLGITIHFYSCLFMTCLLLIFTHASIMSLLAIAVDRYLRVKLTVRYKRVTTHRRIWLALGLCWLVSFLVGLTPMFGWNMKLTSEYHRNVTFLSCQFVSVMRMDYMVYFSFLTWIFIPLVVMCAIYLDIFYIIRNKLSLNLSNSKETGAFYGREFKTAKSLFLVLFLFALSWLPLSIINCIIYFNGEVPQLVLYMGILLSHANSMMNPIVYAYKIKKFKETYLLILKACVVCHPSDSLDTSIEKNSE
Protocol: as §1, §2

Chain of adenosine 2a (P29274 whole entry): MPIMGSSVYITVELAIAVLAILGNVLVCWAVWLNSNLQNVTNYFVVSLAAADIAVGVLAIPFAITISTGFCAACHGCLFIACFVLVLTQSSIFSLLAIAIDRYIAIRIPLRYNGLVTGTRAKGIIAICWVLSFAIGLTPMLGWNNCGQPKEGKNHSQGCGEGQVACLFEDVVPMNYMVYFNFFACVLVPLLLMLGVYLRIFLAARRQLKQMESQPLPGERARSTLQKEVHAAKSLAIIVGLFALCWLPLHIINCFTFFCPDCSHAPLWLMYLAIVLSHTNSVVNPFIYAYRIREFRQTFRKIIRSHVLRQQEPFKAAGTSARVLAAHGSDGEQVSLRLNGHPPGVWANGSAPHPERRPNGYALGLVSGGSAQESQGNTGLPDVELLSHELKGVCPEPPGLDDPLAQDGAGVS

Row | A2a (EC50 values as a ratio of that of NECA) (adenosine 2a) | A1 (EC50 values as a ratio of that of NECA) (adenosine 1) | A3 (EC50 values as a ratio of that of NECA) (adenosine 3) | Compound
1 | 4.77 | >8841 | >194 | CCc1nc([C@H]2O[C@@H](n3cnc4c(NCC(c5ccccc5)c5ccccc5)nc(N[C@H]5CC[C@H](N)CC5)nc43)[C@H](O)[C@@H]2O)no1.O=CO.O=CO (relative stereo) [Example 12, (2R,3R,4S,5R)-2-[2-(trans-4-Amino-cyclohexylamino)-6-(2,2-diphenyl-ethylamino)-purin-9-yl]-5-(5-ethyl-[1,2,4]oxadiazol-3-yl)-tetrahydro-furan-3,4-diol diformate]
2 | 26.3 | 1105.6 | >173 | CCC(CC)Nc1nc(N[C@H]2CC[C@H](N)CC2)nc2c1ncn2[C@@H]1O[C@H](c2nnc(C3CC3)o2)[C@@H](O)[C@H]1O.O=CO.O=CO (relative stereo) [Example 36, (2R,3R,4S,5S)-2-[2-(trans-4-Amino-cyclohexylamino)-6-(1-ethyl-propylamino)-purin-9-yl]-5-(5-cyclopropyl-[1,3,4]oxadiazol-2-yl)-tetrahydro-furan-3,4-diol diformate]
3 | 2.46 | >=7728 | >1087 | Cc1nnc([C@H]2O[C@@H](n3cnc4c(NCC(c5ccccc5)c5ccccc5)nc(N[C@H](CO)Cc5ccccc5)nc43)[C@H](O)[C@@H]2O)[nH]1.O=CO [Example 2, (2R,3R,4S,5R)-2-[6-(2,2-Diphenyl-ethylamino)-2-(1S-hydroxymethyl-2-phenyl-ethylamino)-purin-9-yl]-5-(5-methyl-4H-[1,2,4]triazol-3-yl)-tetrahydro-furan-3,4-diol formate]
4 | 1 | >=5194 | >319 | CCc1nnc([C@H]2O[C@@H](n3cnc4c(NCC(c5ccccc5)c5ccccc5)nc(N[C@H](CO)Cc5ccccc5)nc43)[C@H](O)[C@@H]2O)[nH]1.O=CO [Example 5, (2R,3R,4S,5R)-2-[6-(2,2-Diphenyl-ethylamino)-2-(1S-hydroxymethyl-2-phenyl-ethylamino)-purin-9-yl]-5-(5-ethyl-4H-[1,2,4]triazol-3-yl)-tetrahydro-furan-3,4-diol formate]

Continued, molecule first:

Row | Compound | A2a (EC50 values as a ratio of that of NECA) (adenosine 2a) | A1 (EC50 values as a ratio of that of NECA) (adenosine 1) | A3 (EC50 values as a ratio of that of NECA) (adenosine 3)
5 | Cc1nnc([C@H]2O[C@@H](n3cnc4c(NCC(c5ccccc5)c5ccccc5)nc(NCCN5CCCC5)nc43)[C@H](O)[C@@H]2O)[nH]1.O=CO [Example 1, (2R,3R,4S,5R)-2-[6-(2,2-Diphenyl-ethylamino)-2-(2-pyrrolidin-1-yl-ethylamino)-purin-9-yl]-5-(5-methyl-4H-[1,2,4]triazol-3-yl)-tetrahydro-furan-3,4-diol formate] | 14.6 | >8325 | >1088
6 | Cc1nnc([C@H]2O[C@@H](n3cnc4c(NCC(c5ccccc5)c5ccccc5)nc(NCCc5cn(C)cn5)nc43)[C@H](O)[C@@H]2O)[nH]1.O=CO [Example 3, (2R,3R,4S,5R)-2-{6-(2,2-Diphenyl-ethylamino)-2-[2-(1-methyl-1H-imidazol-4-yl)-ethylamino]-purin-9-yl}-5-(5-methyl-4H-[1,2,4]triazol-3-yl)-tetrahydro-furan-3,4-diol formate] | 3.54 | >9058 | >698
7 | Cc1nnc([C@H]2O[C@@H](n3cnc4c(NCC(c5ccccc5)c5ccccc5)nc(N[C@H]5CC[C@H](N)CC5)nc43)[C@H](O)[C@@H]2O)[nH]1.O=CO [Example 4, (2R,3R,4S,5R)-2-[2-(trans-4-Amino-cyclohexylamino)-6-(2,2-diphenyl-ethylamino)-purin-9-yl]-5-(5-methyl-4H-[1,2,4]triazol-3-yl)-tetrahydro-furan-3,4-diol formate] | 5.1 | 4686 | >1052
